What was measured:
Assay in all cases: relative viability (nuclei count vs DMSO), 5 days (fraction); higher = more cells survive
[1] = compound: CC1=C(C(=NN1)C)CC2=C(C3=C(S2)N(C(=O)N(C3=O)C)CC(C)C)C(=O)N4C[C@@H](CO4)O + CS(=O)(=O)N1CCN(Cc2cc3nc(-c4cccc5[nH]ncc45)nc(N4CCOCC4)c3s2)CC1 [Pictilisib] (partner 1 µM)
Outline: (§1)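 Dosing by pin tool came one day after lung cancer cell lines were seeded in 1536-well plates, using either one drug or a fixed anchor-drug dose plus five library-drug doses (not always all listed) in √10 steps. After 5 days, nuclei were counted on 4× images. Relative viability is treated-well nuclei count divided by vehicle-well nuclei count, and values are medians of duplicate plates.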

IDH-C35 + Lapatinib = compound: Cc1ccccc1C(C(=O)NC1CCCCC1)N(C(=O)Cn1ccnc1C)c1cccc(F)c1 [IDH-C35] + CS(=O)(=O)CCNCc1ccc(-c2ccc3ncnc(Nc4ccc(OCc5cccc(F)c5)c(Cl)c4)c3c2)o1 [Lapatinib] (partner 2 µM)
Outline: as §1

IDH-C35 + Olaparib = compound: Cc1ccccc1C(C(=O)NC1CCCCC1)N(C(=O)Cn1ccnc1C)c1cccc(F)c1 [IDH-C35] + O=C(c1cc(Cc2n[nH]c(=O)c3ccccc23)ccc1F)N1CCN(C(=O)C2CC2)CC1 [Olaparib] (partner 8 µM)
Outline: as §1

[2] = compound: CC1=C(C(=NN1)C)CC2=C(C3=C(S2)N(C(=O)N(C3=O)C)CC(C)C)C(=O)N4C[C@@H](CO4)O + CC(=O)Nc1cccc(-n2c(=O)n(C3CC3)c(=O)c3c(Nc4ccc(I)cc4F)n(C)c(=O)c(C)c32)c1 [Trametinib] (partner 0.02 µM)
Outline: as §1

UMC-11
relative viability ([1]; first compound 0.0025 µM): 0.917 | relative viability ([1]; first compound 0.007906 µM): 0.673 | relative viability ([1]; first compound 0.025 µM): 0.785 | relative viability ([1]; first compound 0.07906 µM): 0.921 | relative viability ([1]; first compound 0.25 µM): 0.907 | relative viability (IDH-C35 + Lapatinib; first compound 0.08 µM): 1.01 | relative viability (IDH-C35 + Lapatinib; first compound 0.253 µM): 0.976 | relative viability (IDH-C35 + Lapatinib; first compound 0.8 µM): 0.98 | relative viability (IDH-C35 + Lapatinib; first compound 2.53 µM): 0.96 | relative viability (IDH-C35 + Lapatinib; first compound 8 µM): 1.09 | relative viability (IDH-C35 + Olaparib; first compound 0.08 µM): 0.383 | relative viability (IDH-C35 + Olaparib; first compound 0.253 µM): 0.366 | relative viability (IDH-C35 + Olaparib; first compound 0.8 µM): 0.402 | relative viability (IDH-C35 + Olaparib; first compound 2.53 µM): 0.382 | relative viability (IDH-C35 + Olaparib; first compound 8 µM): 0.445 | relative viability ([2]; first compound 0.0025 µM): 0.842 | relative viability ([2]; first compound 0.007906 µM): 0.84 | relative viability ([2]; first compound 0.025 µM): 0.83 | relative viability ([2]; first compound 0.07906 µM): 0.677 | relative viability ([2]; first compound 0.25 µM): 0.993

Source: the supplement of paper PMC10307832
